Tests used:
Assay type in all cases: cell-based
[1] = tested on: PRMT5 (SDMA) in HAP1 MTAP-deleted cell line; assay: SDMA in-cell western assay, HAP1 MTAP-deleted cell line; details: for IC50 / IC90: Homo sapiens, SDMA in-cell western, HAP1 MTAP-deleted (MTAP-null) cell line; for Hap1 MTAP intact/deleted ratio: ratio of SDMA in-cell western IC50 in HAP1 MTAP-intact to IC50 in HAP1 MTAP-deleted cell line
Source text: (§1) HAP1 MTAP-intact is a cell line in which endogenous levels of MTAP are expressed, and HAP1 MTAP-deleted is an MTAP-null cell line.

[2] = tested on: HAP1 MTAP-deleted cell line; assay: viability assay for the MTAP-deleted cell line; details: Homo sapiens
[3] = tested on: PRMT5 (SDMA) in HAP1 MTAP-intact cell line; assay: SDMA in-cell western assay, HAP1 MTAP-intact cell line; details: Homo sapiens, HAP1 MTAP-intact cell line (endogenous MTAP), read-out: Hap 1 MTAP intact IC50
Source text: as §1

Row | Compound | IC50 [1] | Hap1 MTAP intact/deleted ratio [1] | IC50 [2] | IC50 [3] | IC90 [1]
1 | CCN1C[C@H](c2ccccc2)N(C(=O)C(=O)Nc2cnc(N)c3cn[nH]c23)C[C@H]1C (racemic) [Compound 162, N-(4-Amino-1H-pyrazolo[4,3-c]pyridin-7-yl)-2-oxo-2-[rac-(2S,5R)-4-ethyl-5-methyl-2-phenyl-piperazin-1-yl]acetamide] | < 5 nM | A (an IC50 ratio greater than or equal to 30 fold) | < 100 nM | > 50 nM | –
2 | C[C@@H]1CN(C(=O)C(=O)Nc2cnc(N)c3cn[nH]c23)[C@@H](c2ccccc2)CN1C1CCC1 (racemic) [Compound 163, N-(4-Amino-2H-pyrazolo[4,3-c]pyridin-7-yl)-2-oxo-2-[rac-(2S,5R)-4-cyclobutyl-5-methyl-2-phenyl-piperazin-1-yl]acetamide] | < 5 nM | C (an IC50 ratio of less than 15 fold) | < 100 nM | 5 to 50 nM | –
3 | C[C@@H]1CN(C(=O)C(=O)Nc2cnc(N)c3cn[nH]c23)[C@@H](c2ccccc2)CN1C1(C)CC1 (racemic) [Compound 167, N-(4-Amino-1H-pyrazolo[4,3-c]pyridin-7-yl)-2-oxo-2-[rac-(2S,5R)-5-methyl-4-(1-methylcyclopropyl)-2-phenyl-piperazin-1-yl]acetamide] | < 5 nM | A (an IC50 ratio greater than or equal to 30 fold) | < 100 nM | > 50 nM | –
4 | C[C@@H]1CN(C(=O)C(=O)Nc2cnc(N)c3cn[nH]c23)[C@@H](c2ccccc2)CN1C1CC1 (racemic) [Compound 170, N-(4-Amino-1H-pyrazolo[4,3-c]pyridin-7-yl)-2-oxo-2-[rac-(2S,5R)-4-cyclopropyl-5-methyl-2-phenyl-piperazin-1-yl]acetamide] | < 5 nM | C (an IC50 ratio of less than 15 fold) | < 100 nM | 5 to 50 nM | –
5 | Cc1cc(NC(=O)C(=O)N2C[C@@H](C)N(C(=O)C(C)C)C[C@@H]2c2ccc3scnc3c2)cnc1N (single isomer, unassigned) [Compound 43] | 5 to 50 nM | C (an IC50 ratio of less than 15 fold) | 100 to 1000 nM | > 50 nM | > 125 nM
6 | Cc1cc(NC(=O)C(=O)N2C[C@H](C)N(C(=O)C(C)C)C[C@H]2c2ccc3scnc3c2)cnc1N (single isomer, unassigned) [Compound 45] | > 50 nM | C (an IC50 ratio of less than 15 fold) | > 1000 nM | > 50 nM | > 125 nM
7 | Cc1cc(NC(=O)C(=O)N2C[C@@H](C)N(C(=O)C3(C)CC3)C[C@@H]2c2cccs2)cnc1N (single isomer, unassigned) [Compound 53] | < 5 nM | C (an IC50 ratio of less than 15 fold) | < 100 nM | 5 to 50 nM | < 75 nM
8 | CC(C)CN1C[C@@H](c2ccc(F)cc2)N(C(=O)C(=O)Nc2cnc(N)c(C3CC3)c2)C[C@H]1C (single isomer, unassigned) [Compound 84] | 5 to 50 nM | A (an IC50 ratio greater than or equal to 30 fold) | < 100 nM | > 50 nM | < 75 nM
9 | CCc1cc(NC(=O)C(=O)N2CCN(C(=O)C3(C(F)(F)F)CC3)C[C@H]2c2ccc(F)c(Cl)c2)cnc1N (single isomer, unassigned) [Compound 123] | 5 to 50 nM | A (an IC50 ratio greater than or equal to 30 fold) | 100 to 1000 nM | > 50 nM | > 125 nM
10 | CC(C)OC(=O)N1C[C@H](c2ccc(F)cc2)N(C(=O)C(=O)Nc2cnc(N)c(C3CC3)c2)C[C@H]1C (stereo in doubt) [Compound 92, isopropyl 4-(2-((6-amino-5-cyclopropylpyridin-3-yl)amino)-2-oxoacetyl)-5-(4-fluorophenyl)-2-methylpiperazine-1-carboxylate] | > 50 nM | C (an IC50 ratio of less than 15 fold) | > 1000 nM | > 50 nM | > 125 nM
11 | Cc1cc(NC(=O)C(=O)N2CCN(C(=O)C3(C(F)(F)F)CC3)[C@H](C)[C@H]2c2ccc(F)cc2)cnc1N (stereo in doubt) [Compound 118, N-(6-amino-5-methyl-3-pyridyl)-2-[2-(4-fluorophenyl)-3-methyl-4-[1-(trifluoromethyl)cyclopropanecarbonyl]piperazin-1-yl]-2-oxo-acetamide] | 5 to 50 nM | B (an IC50 ratio greater than or equal to 15 fold but lower than 30 fold) | 100 to 1000 nM | > 50 nM | > 125 nM
12 | C[C@@H]1CN(C(=O)C(=O)Nc2cnc(N)c(C3CC3)c2)[C@@H](c2ccc(F)cc2)CN1C(=O)OC(C)(C)C (stereo in doubt) [Compound 144, tert-butyl 4-(2-((6-amino-5-cyclopropylpyridin-3-yl)amino)-2-oxoacetyl)-5-(4-fluorophenyl)-2-methylpiperazine-1-carboxylate] | < 5 nM | B (an IC50 ratio greater than or equal to 15 fold but lower than 30 fold) | < 100 nM | > 50 nM | < 75 nM
13 | C[C@H]1CN(C(=O)C(=O)Nc2cnc(N)c(C3CC3)c2)[C@H](c2ccc(F)cc2)CN1C(=O)OC(C)(C)C (stereo in doubt) [Compound 146, tert-butyl 4-(2-((6-amino-5-cyclopropylpyridin-3-yl)amino)-2-oxoacetyl)-5-(4-fluorophenyl)-2-methylpiperazine-1-carboxylate] | > 50 nM | C (an IC50 ratio of less than 15 fold) | > 1000 nM | > 50 nM | > 125 nM
14 | C[C@@H]1CN(C(=O)C(=O)Nc2cnc(N)c(C3CC3)c2)[C@@H](c2ccc(F)cc2)CN1C(=O)OC(C)(C)C (stereo in doubt) [Compound 148, tert-butyl 4-(2-((6-amino-5-cyclopropylpyridin-3-yl)amino)-2-oxoacetyl)-5-(4-fluorophenyl)-2-methylpiperazine-1-carboxylate] | < 5 nM | A (an IC50 ratio greater than or equal to 30 fold) | < 100 nM | > 50 nM | > 125 nM
15 | CC(C)OC(=O)N1C[C@@H](c2ccc(F)cc2)N(C(=O)C(=O)Nc2cnc(N)c(C3CC3)c2)C[C@@H]1C (stereo in doubt) [Compound 151, isopropyl 4-(2-((6-amino-5-cyclopropylpyridin-3-yl)amino)-2-oxoacetyl)-5-(4-fluorophenyl)-2-methylpiperazine-1-carboxylate] | < 5 nM | B (an IC50 ratio greater than or equal to 15 fold but lower than 30 fold) | < 100 nM | > 50 nM | < 75 nM
16 | CCc1cc(NC(=O)C(=O)N2CCN(C(=O)C3(C(F)(F)F)CC3)[C@@H](C)[C@@H]2c2ccc(F)cc2)cnc1N [Compound 1] | 5 to 50 nM | A (an IC50 ratio greater than or equal to 30 fold) | < 100 nM | > 50 nM | 75 to 125 nM
17 | C[C@@H]1CN(C(=O)C(=O)Nc2cnc(N)c(C3COC3)c2)[C@@H](c2ccc(F)cc2)CN1C(=O)OC(C)(C)C [Compound 2, (2R,5S)-tert-butyl 4-(2-((6-amino-5-(oxetan-3-yl)pyridin-3-yl)amino)-2-oxoacetyl)-5-(4-fluorophenyl)-2-methylpiperazine-1-carboxylate] | < 5 nM | C (an IC50 ratio of less than 15 fold) | < 100 nM | > 50 nM | < 75 nM
18 | C[C@H]1CN(C(=O)C(=O)Nc2cnc(N)c(C3CC3)c2)[C@H](c2ccc(F)cc2)CN1C(=O)CC1CC1 [Compound 6] | 5 to 50 nM | B (an IC50 ratio greater than or equal to 15 fold but lower than 30 fold) | < 100 nM | > 50 nM | 75 to 125 nM
19 | Cc1cc(NC(=O)C(=O)N2C[C@@H](C)N(C(=O)C(C)(C)C)C[C@@H]2c2cccc(N3CCN(C)CC3)c2)cnc1N [Compound 7, N-(6-amino-5-methylpyridin-3-yl)-2-((2S,5R)-5-methyl-2-(3-(4-methylpiperazin-1-yl)phenyl)-4-pivaloylpiperazin-1-yl)-2-oxoacetamide] | < 5 nM | C (an IC50 ratio of less than 15 fold) | < 100 nM | < 5 nM | < 75 nM
20 | C[C@@H]1CN(C(=O)C(=O)Nc2cnc(N)c(C3CC3)c2)[C@@H](c2ccc(F)cc2)CN1C(=O)C1(C)CC1 [Compound 8, N-(6-amino-5-cyclopropylpyridin-3-yl)-2-((2S,5R)-2-(4-fluorophenyl)-5-methyl-4-(1-methylcyclopropanecarbonyl)piperazin-1-yl)-2-oxoacetamide] | < 5 nM | C (an IC50 ratio of less than 15 fold) | < 100 nM | 5 to 50 nM | < 75 nM
21 | C[C@@H]1CN(C(=O)C(=O)Nc2cncc3cn[nH]c23)[C@@H](c2cccc(Cl)c2)CN1C(=O)C(C)(C)C [Compound 9, 2-((2S,5R)-2-(3-chlorophenyl)-5-methyl-4-pivaloylpiperazin-1-yl)-2-oxo-N-(1H-pyrazolo[4,3-c]pyridin-7-yl)acetamide] | 5 to 50 nM | B (an IC50 ratio greater than or equal to 15 fold but lower than 30 fold) | 100 to 1000 nM | > 50 nM | > 125 nM
